The results in this text go back to patent US20160108381A1, “DNA POLYMERASES AND MUTANTS THEREOF” (LIFE TECHNOLOGIES CORPORATION, priority 2001, published 2016).

This assay has as its target T1, Bacillus caldolyticus EA1.3 (B.EA1) DNA polymerase, SEQ ID NO:20 ([Bacillus] caldolyticus, UniProt Q6X9S1).
T1 sequence (Q6X9S1 with tags, fused parts or gaps): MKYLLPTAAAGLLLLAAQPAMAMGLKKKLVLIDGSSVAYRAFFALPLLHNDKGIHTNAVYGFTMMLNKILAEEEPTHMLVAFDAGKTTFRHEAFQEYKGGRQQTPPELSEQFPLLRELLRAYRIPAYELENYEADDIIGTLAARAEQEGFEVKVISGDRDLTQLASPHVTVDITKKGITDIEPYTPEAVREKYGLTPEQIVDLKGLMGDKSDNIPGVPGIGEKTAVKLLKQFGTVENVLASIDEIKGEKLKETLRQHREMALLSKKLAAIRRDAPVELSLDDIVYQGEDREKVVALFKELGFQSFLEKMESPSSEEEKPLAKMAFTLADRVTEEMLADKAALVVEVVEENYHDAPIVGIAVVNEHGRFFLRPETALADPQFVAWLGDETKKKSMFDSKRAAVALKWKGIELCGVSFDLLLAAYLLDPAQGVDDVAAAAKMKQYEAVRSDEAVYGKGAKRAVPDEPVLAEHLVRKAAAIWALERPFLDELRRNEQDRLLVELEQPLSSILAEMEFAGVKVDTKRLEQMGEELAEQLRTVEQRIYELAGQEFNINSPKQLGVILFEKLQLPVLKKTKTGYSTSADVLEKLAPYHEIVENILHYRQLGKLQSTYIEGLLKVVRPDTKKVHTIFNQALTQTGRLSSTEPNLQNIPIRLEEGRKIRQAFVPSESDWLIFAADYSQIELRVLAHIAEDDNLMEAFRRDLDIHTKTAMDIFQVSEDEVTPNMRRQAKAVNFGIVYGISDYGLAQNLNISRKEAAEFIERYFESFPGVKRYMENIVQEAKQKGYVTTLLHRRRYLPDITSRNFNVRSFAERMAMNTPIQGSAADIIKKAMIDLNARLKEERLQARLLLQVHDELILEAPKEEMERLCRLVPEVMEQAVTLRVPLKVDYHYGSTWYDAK
As to the kind of experiment: Steady-state kinetics, DNA- and RNA-dependent polymerase activity. The assay is classed as biochemical. The following applies: Table 40; dTTP; 55 °C. The protocol: Purification of CA2, B.EA1, Rt41A, Dth, Tok13B, Tok7B, and Rt69B DNA polymerase. E. coli cells (BL21SI, Invitrogen Corporation, Carlsbad, Calif.) bearing the plasmid pET26B with the gene for CA2, B.EA1, Rt41A, or Dth DNA polymerase were grown in 2.8-1 Fembach flasks in LB broth containing no salt and 50 μg/ml kanamycin at 37° C. After the culture reached an A590 of 1.2, expression of DNA polymerase was induced with 0.3 M NaCl for 3 hr. Cells were harvested by centrifugation and stored at −70° C. E. coli cells (BL21AI) bearing the plasmid pET14B with the gene for Tok13B, Tok7B, or RT69B DNA polymerase were grown in 2.8-1 Fembach flasks in LB broth containing 50 μg/ml ampicillin at 37° C. After the culture reached an A590 of 1.0, expression of DNA polymerase was induced by the addition of 0.2% arabinose for 3 hr. Cells were harvested by centrifugation and stored at −70° C.
Steady-state kinetic measurements.

For the molecule `Cc1cn([C@H]2C[C@H](O)[C@@H](COP(=O)(O)OP(=O)(O)OP(=O)(O)O)O2)c(=O)[nH]c1=O` [dTTP], the “kCAT Ratio (RNA/DNA)” value was determined as 0.59.
